In patent US8906925B2, “Pyrido[4,3-B]indoles containing rigid moieties” (Medivation Technologies, Inc., priority 2008, dated 2014):
Read-outs that look alike come from different tables or passages of the source.

How the values were obtained:
[1] = biological target: T1, human recombinant serotonin (5-Hydroxytryptamine) 5-HT2C receptor (Homo sapiens, UniProt P28335); experiment: Serotonin 5-HT2C radioligand binding ([3H]Mesulergine); settings: compound at 1 μM; read-out: Inhibition of ligand binding, Serotonin 5-HT2C (percent inhibition of specific binding)
T1 construct: expressed in transfected cells; host or cells: Chinese hamster ovary (CHO-K1) cells
T1 sequence (P28335 33-458): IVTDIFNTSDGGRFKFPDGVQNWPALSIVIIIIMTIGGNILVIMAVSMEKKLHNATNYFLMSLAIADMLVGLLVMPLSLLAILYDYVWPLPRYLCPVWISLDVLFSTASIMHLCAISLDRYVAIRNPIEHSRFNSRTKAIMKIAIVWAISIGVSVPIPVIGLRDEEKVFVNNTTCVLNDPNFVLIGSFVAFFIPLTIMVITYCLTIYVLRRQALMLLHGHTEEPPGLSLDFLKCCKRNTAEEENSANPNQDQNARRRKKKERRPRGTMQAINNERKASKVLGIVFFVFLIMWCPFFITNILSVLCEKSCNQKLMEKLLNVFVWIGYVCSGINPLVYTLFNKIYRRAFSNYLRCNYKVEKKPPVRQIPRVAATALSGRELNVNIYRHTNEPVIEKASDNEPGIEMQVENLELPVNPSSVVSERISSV
Summary of the method: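 Compounds tested at 1 μM or lower (1% DMSO vehicle) for displacement of 1 nM [3H]Mesulergine over 60 min at 25° C. Specific binding determined by filtration counting, with 1 μM Mianserin defining non-specific binding; values are percent inhibition.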

[2] = biological target: T2, human recombinant adrenergic α2B receptor (Homo sapiens, UniProt P18089); experiment: Adrenergic α2B radioligand binding ([3H]Rauwolscine); settings: compound at 1 μM
T2 construct: expressed in transfected cells; host or cells: Chinese hamster ovary (CHO-K1) cells
T2 sequence (P18089 1-450): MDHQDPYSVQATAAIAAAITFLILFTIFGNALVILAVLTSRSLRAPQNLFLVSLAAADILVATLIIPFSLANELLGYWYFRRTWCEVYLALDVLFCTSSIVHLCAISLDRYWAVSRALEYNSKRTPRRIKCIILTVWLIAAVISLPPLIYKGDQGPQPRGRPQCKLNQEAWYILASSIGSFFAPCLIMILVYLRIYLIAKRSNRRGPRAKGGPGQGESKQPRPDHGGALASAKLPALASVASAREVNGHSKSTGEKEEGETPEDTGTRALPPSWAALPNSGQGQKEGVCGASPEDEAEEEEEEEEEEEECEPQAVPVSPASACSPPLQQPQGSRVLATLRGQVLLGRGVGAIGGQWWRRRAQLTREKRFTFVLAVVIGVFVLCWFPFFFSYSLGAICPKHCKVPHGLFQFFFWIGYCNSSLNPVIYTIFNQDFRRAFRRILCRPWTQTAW
Summary of the method: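 Membranes from CHO-K1 cells expressing the receptor were incubated with 2.5 nM [3H]Rauwolscine for 60 min at 25 °C in Tris-HCl buffer pH 7.4 with MgCl2, EDTA and BSA. Non-specific binding was defined with 10 μM prazosin. Compounds were tested at ≤1 μM in 1% DMSO and read out as % inhibition of specific binding after filtration.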

[3] = biological target: histamine receptor H1 (Homo sapiens, UniProt P35367); experiment: Histamine H1 radioligand binding ([3H]Pyrilamine); settings: read-out: Histamine Binding (1 μM) H1, percent inhibition of specific binding, 1 μM
Summary of the method: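 Values are percent inhibition of specific [3H]pyrilamine (1.2 nM) binding with compounds at ≤1 μM (1% DMSO vehicle); 180 min incubation at 25 °C, pH 7.4 Tris buffer, on CHO-expressed human H1 receptor; 1 μM pyrilamine defined nonspecific binding, bound ligand counted after filtration.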

[4] = biological target: human dopamine D2L receptor (Homo sapiens, UniProt P14416); experiment: Dopamine D2L radioligand binding ([3H]Spiperone); settings: compound at 1 μM
Source text: Non-specific binding was estimated in the presence of […] Haloperidol. Receptor proteins were filtered and washed, the filters were then counted to determine [^3H]Spiperone specifically bound. […] Biochemical assay results are presented as the percent inhibition of specific binding in Table 9.

[5] = […] [3H]Rauwolscine, read-out: Inhibition of ligand binding, Adrenergic α2B (percent inhibition of specific binding)
[6] = […] [3H]Spiperone, read-out: Inhibition of ligand binding, Dopamine D2L (percent inhibition of specific binding)
[7] = percent inhibition of specific binding, read-out: Inhibition of ligand binding, Adrenergic α2B
[8] = percent inhibition of specific binding, read-out: Inhibition of ligand binding, Dopamine D2L

human dopamine D2L receptor, sequence (P14416 whole entry): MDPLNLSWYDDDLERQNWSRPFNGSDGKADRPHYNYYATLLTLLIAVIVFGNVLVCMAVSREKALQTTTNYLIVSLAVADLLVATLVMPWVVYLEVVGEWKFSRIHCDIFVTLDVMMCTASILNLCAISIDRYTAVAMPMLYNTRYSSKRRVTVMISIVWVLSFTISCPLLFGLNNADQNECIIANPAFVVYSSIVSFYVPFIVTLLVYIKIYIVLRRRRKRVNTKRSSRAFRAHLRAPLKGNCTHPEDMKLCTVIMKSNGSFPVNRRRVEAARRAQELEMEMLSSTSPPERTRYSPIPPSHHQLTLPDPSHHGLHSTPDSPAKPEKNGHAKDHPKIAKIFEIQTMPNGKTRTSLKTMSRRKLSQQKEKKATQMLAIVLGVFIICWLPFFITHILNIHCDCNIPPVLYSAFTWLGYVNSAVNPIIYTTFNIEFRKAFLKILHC
histamine receptor H1, sequence (P35367 whole entry): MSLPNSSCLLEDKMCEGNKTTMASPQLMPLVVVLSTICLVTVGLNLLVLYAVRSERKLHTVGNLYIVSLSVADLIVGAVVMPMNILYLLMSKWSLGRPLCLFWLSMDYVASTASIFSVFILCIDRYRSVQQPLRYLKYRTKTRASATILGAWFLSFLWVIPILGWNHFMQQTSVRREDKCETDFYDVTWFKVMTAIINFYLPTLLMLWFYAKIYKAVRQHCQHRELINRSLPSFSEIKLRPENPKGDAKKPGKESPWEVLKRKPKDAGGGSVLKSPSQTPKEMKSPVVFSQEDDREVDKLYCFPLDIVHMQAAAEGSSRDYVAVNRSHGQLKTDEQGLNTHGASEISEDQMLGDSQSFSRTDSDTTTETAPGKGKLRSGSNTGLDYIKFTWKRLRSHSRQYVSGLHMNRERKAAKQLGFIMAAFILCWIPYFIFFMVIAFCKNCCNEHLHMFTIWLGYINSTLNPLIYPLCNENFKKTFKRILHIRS

COC(=O)c1ccc2c(c1)c1c(n2C#Cc2ccc(F)cc2)CCN(C)C1 [Compound No. 479, methyl 5-((4-fluorophenyl)ethynyl)-2-methyl-2,3,4,5-tetrahydro-1H-pyrido[4,3-b]indole-8-carboxylate] gave an inhibition at 1 µM [1] of 69%, an inhibition at 1 µM [2, 5] of 37% and an inhibition at 1 µM [3] of 11%. For the same compound, the inhibition at 1 µM [4, 6] was 72%.

In the case of CN1CCc2c(c3cc(Cl)ccc3n2C#Cc2ccc(Cl)cc2)C1 [Compound No. 480, 8-chloro-5-((4-chlorophenyl)ethynyl)-2-methyl-2,3,4,5-tetrahydro-1H-pyrido[4,3-b]indole], the inhibition at 1 µM [1] was 102%, the inhibition at 1 µM [2, 5] was 100% and the inhibition at 1 µM [3] was 40%. It also gave an inhibition at 1 µM [4, 6] of 18%.

Cc1ccc2c(c1)c1c(n2C#Cc2ccc(Cl)cc2)CCN(C)C1 [Compound No. 481, 5-((4-chlorophenyl)ethynyl)-2,8-dimethyl-2,3,4,5-tetrahydro-1H-pyrido[4,3-b]indole] was tested, and the inhibition at 1 µM [1] was 104%, the inhibition at 1 µM [2, 5] was 98% and the inhibition at 1 µM [3] was 12%. For the same compound, the inhibition at 1 µM [4, 6] was 24%.

Compound CN1CCc2c(c3cc(C(=O)O)ccc3n2C#Cc2ccc(F)cc2)C1 [Compound No. 482, 5-((4-fluorophenyl)ethynyl)-2-methyl-2,3,4,5-tetrahydro-1H-pyrido[4,3-b]indole-8-carboxylic acid] has an inhibition at 1 µM [1] of -12%, an inhibition at 1 µM [2, 5] of 6% and an inhibition at 1 µM [3] of 13%. It also gave an inhibition at 1 µM [4, 6] of -2%.

With CNC(=O)c1ccc2c(c1)c1c(n2C#Cc2ccc(F)cc2)CCN(C)C1 [Compound No. 483, 5-((4-fluorophenyl)ethynyl)-N,2-dimethyl-2,3,4,5-tetrahydro-1H-pyrido[4,3-b]indole-8-carboxamide] the inhibition at 1 µM [1] was 35%, the inhibition at 1 µM [2, 5] was 14% and the inhibition at 1 µM [3] was -1%. It also gave an inhibition at 1 µM [4, 6] of 37%.

In the case of Cc1ccc2c(c1)c1c(n2/C=C/c2ccc(C)nc2)CCN(C)C1 [compound 95, 2,3,4,5-tetrahydro-2,8-dimethyl-5-((E)-2-(6-methylpyridin-3-yl)vinyl)-1H-pyrido[4,3-b]indole], the inhibition at 1 µM [1] was 91%, the inhibition at 1 µM [2, 7] was 103% and the inhibition at 1 µM [3] was 85%. It also gave an inhibition at 1 µM [4, 8] of 17%.

With C/C(=C\n1c2c(c3cc(Cl)ccc31)CN(C)CC2)c1ccccc1 [compound 106, (E)-8-chloro-2,3,4,5-tetrahydro-2-methyl-5-(2-phenylprop-1-enyl)-1H-pyrido[4,3-b]indole] the inhibition at 1 µM [1] was 98%, the inhibition at 1 µM [2, 7] was 114% and the inhibition at 1 µM [3] was 84%. It also gave an inhibition at 1 µM [4, 8] of 90%.
